Among the data in ChEMBL document CHEMBL1126751, “Studies on quinazolines. 5. 2,3-dihydroimidazo[1,2-c]quinazoline derivatives: a novel class of potent and selective alpha 1-adrenoceptor antagonists and antihypertensive agents” (J Med Chem, 1993) are MBP and Ki values, retold here.

The Ki is the equilibrium dissociation constant of an inhibitor or competing ligand from its target.

The test system of assay [1] is Rattus norvegicus. Kind of assay: Blood pressure lowering activity in spontaneously hypertensive rats (SHR) after 6 hours of administration (iv) of dose of 4.0 mg/kg; Did not last more than 1/2 hr […]. The class given is functional, organism-based. Further details: dose 4 mg/kg.
Assay [2] concerns Rattus norvegicus. Nature of the assay: Blood pressure lowering activity in spontaneously hypertensive rats (SHR) after 1 hour of administration (iv) of dose of 4.0 mg/kg; Did not last more than 1/2 hr […]. The class given is functional, organism-based. More on the design: dose 4 mg/kg.
Assay [3] deals with T1, Adrenergic receptor alpha-1 (Rattus norvegicus, UniProt P15823+P23944+P43140).
T1 sequence (P15823 whole entry): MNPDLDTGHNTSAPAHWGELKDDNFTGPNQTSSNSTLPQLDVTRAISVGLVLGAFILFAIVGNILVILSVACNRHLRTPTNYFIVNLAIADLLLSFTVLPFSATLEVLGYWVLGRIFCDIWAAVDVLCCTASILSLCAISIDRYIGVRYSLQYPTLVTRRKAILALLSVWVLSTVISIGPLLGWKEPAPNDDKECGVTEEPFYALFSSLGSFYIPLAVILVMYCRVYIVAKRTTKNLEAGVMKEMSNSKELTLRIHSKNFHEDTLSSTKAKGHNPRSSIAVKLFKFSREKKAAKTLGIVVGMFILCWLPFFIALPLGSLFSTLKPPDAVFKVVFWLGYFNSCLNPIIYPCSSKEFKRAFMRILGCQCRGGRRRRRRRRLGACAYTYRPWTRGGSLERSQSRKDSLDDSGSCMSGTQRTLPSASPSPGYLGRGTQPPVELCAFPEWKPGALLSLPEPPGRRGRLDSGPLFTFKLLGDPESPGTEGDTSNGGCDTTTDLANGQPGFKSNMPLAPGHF
T1 sequence (P23944 whole entry): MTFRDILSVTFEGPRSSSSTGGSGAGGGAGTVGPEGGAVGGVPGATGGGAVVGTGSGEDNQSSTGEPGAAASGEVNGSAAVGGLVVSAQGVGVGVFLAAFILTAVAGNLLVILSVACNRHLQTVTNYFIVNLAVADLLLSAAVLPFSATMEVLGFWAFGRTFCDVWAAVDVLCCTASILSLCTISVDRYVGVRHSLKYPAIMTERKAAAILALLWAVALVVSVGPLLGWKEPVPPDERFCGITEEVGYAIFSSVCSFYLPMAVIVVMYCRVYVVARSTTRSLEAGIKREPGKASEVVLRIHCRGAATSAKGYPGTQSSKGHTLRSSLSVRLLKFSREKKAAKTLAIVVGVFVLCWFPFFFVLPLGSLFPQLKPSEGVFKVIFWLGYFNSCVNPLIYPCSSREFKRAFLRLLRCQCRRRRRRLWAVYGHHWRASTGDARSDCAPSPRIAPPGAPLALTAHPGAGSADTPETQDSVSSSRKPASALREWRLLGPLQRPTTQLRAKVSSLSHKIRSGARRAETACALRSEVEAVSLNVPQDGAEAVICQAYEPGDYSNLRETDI
T1 sequence (P43140 whole entry): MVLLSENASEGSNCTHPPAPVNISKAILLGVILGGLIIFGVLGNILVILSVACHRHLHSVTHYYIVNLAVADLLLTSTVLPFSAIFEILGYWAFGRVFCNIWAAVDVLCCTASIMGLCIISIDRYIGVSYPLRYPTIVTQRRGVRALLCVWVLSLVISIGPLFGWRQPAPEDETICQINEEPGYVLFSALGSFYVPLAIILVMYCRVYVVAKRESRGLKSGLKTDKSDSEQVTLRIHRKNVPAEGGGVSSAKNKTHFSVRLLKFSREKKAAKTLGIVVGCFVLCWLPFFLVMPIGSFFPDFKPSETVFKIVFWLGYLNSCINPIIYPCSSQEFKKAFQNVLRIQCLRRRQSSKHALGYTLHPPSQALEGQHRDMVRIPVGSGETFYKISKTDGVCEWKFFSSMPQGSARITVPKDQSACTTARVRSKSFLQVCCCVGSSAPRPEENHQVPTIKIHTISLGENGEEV
Kind of assay: Binding affinity against alpha-1 adrenergic receptor by measuring displacement of [3H]prazosin from rat brain cortex membranes (in vitro). Type of assay: cell membranes, Membrane. A general note: Loss of bound radioactivity is the signal in a displacement assay; it reports binding, not function.

The target in assay [4] is T2, Adrenergic receptor alpha-2 (Rattus norvegicus, UniProt P22086+P19328+P22909).
T2 sequence (P22086 whole entry): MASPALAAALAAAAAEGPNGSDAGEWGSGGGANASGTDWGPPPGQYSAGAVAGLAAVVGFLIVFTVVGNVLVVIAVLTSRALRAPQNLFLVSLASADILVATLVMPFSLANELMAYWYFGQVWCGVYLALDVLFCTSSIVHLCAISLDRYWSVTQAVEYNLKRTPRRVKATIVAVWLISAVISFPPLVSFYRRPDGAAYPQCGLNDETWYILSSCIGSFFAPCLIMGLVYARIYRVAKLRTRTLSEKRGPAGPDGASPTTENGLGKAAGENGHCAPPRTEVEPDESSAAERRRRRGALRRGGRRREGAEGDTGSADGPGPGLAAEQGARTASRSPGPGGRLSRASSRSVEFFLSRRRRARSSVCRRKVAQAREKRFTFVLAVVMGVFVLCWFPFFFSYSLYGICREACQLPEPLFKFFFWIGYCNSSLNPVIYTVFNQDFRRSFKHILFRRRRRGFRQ
T2 sequence (P19328 whole entry): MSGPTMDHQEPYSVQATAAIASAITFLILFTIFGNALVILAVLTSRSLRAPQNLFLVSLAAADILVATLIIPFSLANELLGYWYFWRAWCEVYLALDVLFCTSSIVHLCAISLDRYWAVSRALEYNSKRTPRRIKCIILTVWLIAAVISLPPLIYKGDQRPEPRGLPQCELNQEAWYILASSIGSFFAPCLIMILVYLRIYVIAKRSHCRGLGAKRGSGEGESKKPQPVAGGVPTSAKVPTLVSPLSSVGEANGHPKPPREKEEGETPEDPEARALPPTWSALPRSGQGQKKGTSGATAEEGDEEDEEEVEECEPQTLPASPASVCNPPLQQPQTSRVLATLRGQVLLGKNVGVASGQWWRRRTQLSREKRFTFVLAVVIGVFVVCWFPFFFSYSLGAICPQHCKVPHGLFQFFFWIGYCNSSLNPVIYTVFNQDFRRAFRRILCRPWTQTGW
T2 sequence (P22909 whole entry): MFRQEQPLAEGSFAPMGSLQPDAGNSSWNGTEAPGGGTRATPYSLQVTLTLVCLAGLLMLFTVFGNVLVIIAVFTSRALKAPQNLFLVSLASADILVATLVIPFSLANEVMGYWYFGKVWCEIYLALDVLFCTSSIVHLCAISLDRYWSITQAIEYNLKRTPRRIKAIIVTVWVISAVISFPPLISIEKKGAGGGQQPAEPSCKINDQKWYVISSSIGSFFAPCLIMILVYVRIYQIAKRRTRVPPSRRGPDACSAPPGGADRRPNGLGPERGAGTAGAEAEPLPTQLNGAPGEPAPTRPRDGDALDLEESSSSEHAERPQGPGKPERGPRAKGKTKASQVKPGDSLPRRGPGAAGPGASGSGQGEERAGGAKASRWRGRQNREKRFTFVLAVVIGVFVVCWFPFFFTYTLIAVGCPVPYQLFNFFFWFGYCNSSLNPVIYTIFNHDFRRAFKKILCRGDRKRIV
Kind of assay: Binding affinity against alpha-2 adrenergic receptor by measuring displacement of [3H]clonidine from rat brain cortex membranes (in vitro). The class given is cell membranes, Membrane.

Assay [5] has as its system Rattus norvegicus. Kind of assay: Blood pressure lowering activity in spontaneously hypertensive rats (SHR) after 6 hours of administration (iv) of dose of 0.5 mg/kg; Did not last more than 1/2 hr […]. Type of assay: functional, organism-based. Further details: dose 0.5 mg/kg.
Assay [6] relates to Rattus norvegicus. Nature of the assay: Blood pressure lowering activity in spontaneously hypertensive rats (SHR) after 1 hour of administration (iv) of dose of 0.5 mg/kg […]. Type of assay: functional.
Assay [7] deals with Rattus norvegicus. Kind of assay: Blood pressure lowering activity in spontaneously hypertensive rats (SHR) after 1 hour of administration (iv) of dose of 4.0 mg/kg […]. The class given is functional.
For assay [8], the system named is Rattus norvegicus. Nature of the assay: Blood pressure lowering activity in spontaneously hypertensive rats (SHR) after 1 hour of administration (iv) of dose of 1.0 mg/kg; Did not last more than 1/2 hr […]. The class given is functional, organism-based. Further details: dose 1 mg/kg.
Assay [9] concerns Rattus norvegicus. Kind of assay: Blood pressure lowering activity in spontaneously hypertensive rats (SHR) after 6 hours of administration (iv) of dose of 1.0 mg/kg; Did not last more than 1/2 hr […]. Type of assay: functional, organism-based. More on the design: dose 1 mg/kg.
Assay [10] has as its system Rattus norvegicus. Nature of the assay: Blood pressure lowering activity in spontaneously hypertensive rats (SHR) after 6 hours of administration (iv) of dose of 0.5 mg/kg […]. Type of assay: functional.

Activity calls are given as the source filed them. The calls are words filed in the database; no cut-off is given here.

Turning to `O=C1Nc2ccccc2C2=NC(CN3CCC4(CCCCC4)CC3)CN12` (configuration not stated), the MBP result in [1] and in assay [2] was “inactive” each time. The Ki in assay [3] was 251.2 nM.

Regarding `O=C1Nc2ccccc2C2=NC(CN3CCN(c4ccc(F)cc4)CC3)CN12` (configuration not stated), the Ki came to 391 nM in [4] and 14.4 nM in assay [3]. Besides, the MBP result in assay [2] is “inactive”.

As for `COc1cccc(N2CCN(CC3CN=C4c5ccccc5N(C)C(=O)N43)CC2)c1` (configuration not stated), the MBP entry in assay [1] and in assay [2] was “inactive” each time. Further, the Ki in assay [3] is reported as 19.4 nM.

Regarding `COC1=Nc2ccccc2C2=NCC(CN3CCN(c4ccc(OC)cc4)CC3)N12` (configuration not stated), the MBP result in [1] and in [2] was “inactive” throughout. Moreover, the Ki in assay [3] is above 100 nM.

Consider `COC1=Nc2ccccc2C2=NCC(CN3CCN(c4ccccc4Cl)CC3)N12` (configuration not stated), for which the Ki was 116 nM in [4] and 0.11 nM in assay [3]. In assay [5], the MBP result was “inactive”. In assay [6], the MBP was -28.3 mmHg.

As for `O=C1Nc2ccccc2C2=NC(CN3CCC(Cc4ccccc4)CC3)CN12` (configuration not stated), the Ki in assay [4] is on record as 5011 nM; in assay [3], 35.8 nM. In addition, the MBP result in [1] was “inactive”. For the same compound, the MBP in [7] was -30.6 mmHg.

As to `CSC1=Nc2ccccc2C2=NCC(CN3CCN(c4ccccc4)CC3)N12` (configuration not stated), the Ki in [3] is listed as above 10 nM. In addition, the MBP entry in [8] and in assay [9] was “inactive” each time.

With `COc1ccccc1N1CCN(CC2CN3C(=O)N(C)c4ccccc4C3=N2)CC1` (configuration not stated), the Ki in assay [4] was determined as 1740 nM; in assay [3], 0.37 nM. Further, the figures for the MBP in assay [10] and in assay [6] were -28.4 mmHg and -38.4 mmHg, respectively.

Take `CN1C(=O)N2CC(CN3CCN(c4ccccc4Cl)CC3)N=C2c2ccccc21` (configuration not stated): the Ki is reported as 473 nM in [4] and 0.68 nM in assay [3]. The values for the MBP in assay [10] and in assay [6] were -22.5 mmHg and -27.5 mmHg, respectively.

For the compound `COc1ccc(N2CCN(CC3CN=C4c5ccccc5NC(=O)N43)CC2)cc1` (configuration not stated), the MBP entry in assay [1] and in assay [2] was “inactive” throughout. For the same compound, the Ki in assay [3] is above 50 nM.

In the case of `O=C1Nc2ccccc2C2=NCC(CN3CCN(c4ccccc4)CC3)N12` (configuration not stated), the Ki is given as 962 nM in assay [4] and 1.7 nM in assay [3].

Regarding `O=C1Nc2ccccc2C2=NC(CN3CCN(c4ccccn4)CC3)CN12` (configuration not stated), the MBP entry in assay [1] and in assay [2] was “inactive” throughout. The same compound gave a Ki in [3] of 95.9 nM.

In the case of `O=C1Nc2ccccc2C2=NCC(CN3CCN(c4ccccc4Cl)CC3)N12` (configuration not stated), the Ki in [4] worked out at 387 nM; in [3], 0.58 nM. In addition, the MBP in [10] is -15 mmHg; in assay [6] it was -14.6 mmHg.

Take `O=C1Nc2ccccc2C2=NC(CNC3CCN(Cc4ccccc4)CC3)CN12` (configuration not stated): the MBP result in [1] and in [2] was “inactive” throughout. For the same compound, in assay [3], the Ki worked out at 586 nM.

As for `CSC1=Nc2ccccc2C2=NCC(CN3CCN(c4ccccc4Cl)CC3)N12` (configuration not stated), the figures for the inhibitory constant (Ki) in assay [4] and in assay [3] were 223 nM and 0.34 nM, respectively. In addition, the MBP entry in [8] and in assay [9] was “inactive” throughout.

For `COC1=Nc2ccccc2C2=NCC(CN3CCN(c4cccc(OC)c4)CC3)N12` (configuration not stated), the MBP entry in assay [1] and in [2] was “inactive” each time. In assay [3], this compound returned a Ki above 100 nM.

In the case of `COC1=Nc2ccccc2C2=NCC(CN3CCN(c4ccccc4)CC3)N12` (configuration not stated), the Ki in assay [4] was 952 nM; in [3], 1.35 nM. The MBP entry in assay [8] and in assay [9] was “inactive” throughout.

`COc1cccc(N2CCN(CC3CN=C4c5ccccc5NC(=O)N43)CC2)c1` (configuration not stated): the Ki in [4] is 302 nM; in assay [3], 5.76 nM. Moreover, the MBP entry in assay [1] and in [2] was “inactive” each time.

`COc1ccc(N2CCN(CC3CN=C4c5ccccc5N=C(SC)N43)CC2)cc1` (configuration not stated) showed a Ki in assay [3] above 100 nM. Moreover, the MBP result in [8] and in [9] was “inactive” in each case.

`COc1ccccc1N1CCN(CC2CN=C3c4ccccc4N(C)C(=O)N32)CC1` (configuration not stated): the Ki is 1419 nM in assay [4] and 0.36 nM in assay [3]. Besides, the MBP in assay [10] is reported as -28.3 mmHg; in assay [6], -32.5 mmHg.

Turning to `COc1cccc(N2CCN(CC3CN=C4c5ccccc5N=C(SC)N43)CC2)c1` (configuration not stated), the Ki in assay [4] is given as 8356 nM; in [3], 48.8 nM. Also, the MBP entry in assay [8] and in assay [9] was “inactive” each time.
